{
  "source": "patent EP3035931B1",
  "about": "“COMPOSITION FOR REDUCING NERVOUS SYSTEM INJURY AND METHOD OF MAKING AND USE THEREOF” (Morehouse School of Medicine, priority 2013, dated 2015)",
  "key": {"cortical neurons": {"system": "cortical neurons", "assay": "Fura-2 Ca^2+ imaging of acid-induced increase of [Ca^2+]i in cortical neurons", "format": "cell-based, mouse", "settings": "pH drop to 6.0; blockers of glutamate receptors and voltage-gated Ca^2+ channels present; n=6-8"}, "ASIC2a": {"biological_target": "T1, ASIC2a (Homo sapiens, UniProt Q16515)", "T1 construct": "expressed in transfected cells; host or cells: CHO", "T1 sequence (Q16515 1-512)": "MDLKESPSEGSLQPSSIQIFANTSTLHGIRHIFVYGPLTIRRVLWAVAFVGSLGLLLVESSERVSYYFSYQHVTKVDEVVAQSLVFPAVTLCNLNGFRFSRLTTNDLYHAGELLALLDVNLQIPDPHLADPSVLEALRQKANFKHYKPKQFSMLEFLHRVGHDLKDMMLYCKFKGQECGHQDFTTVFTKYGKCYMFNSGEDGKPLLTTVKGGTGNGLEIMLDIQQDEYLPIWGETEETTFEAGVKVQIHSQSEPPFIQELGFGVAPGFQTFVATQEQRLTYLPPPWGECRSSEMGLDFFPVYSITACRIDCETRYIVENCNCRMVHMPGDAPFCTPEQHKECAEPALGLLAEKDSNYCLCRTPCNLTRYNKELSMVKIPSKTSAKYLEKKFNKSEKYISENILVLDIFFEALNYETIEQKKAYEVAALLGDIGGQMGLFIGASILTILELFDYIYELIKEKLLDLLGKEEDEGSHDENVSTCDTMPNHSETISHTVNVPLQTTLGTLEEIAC", "assay": "Blockade of ASIC 2a current expressed in CHO cells", "format": "cell-based", "settings": "CHO cells, FIG. 17"}, "[1]": {"system": "COS-7 cells stably transfected with ASIC1a", "assay": "Acid-induced LDH release in ASIC1a-transfected COS-7 cells", "settings": "100 µM; 1 hr pH 6.0, LDH 24 hr after acid incubation"}, "ASICs": {"biological_target": "T2, ASICs (Mus musculus, UniProt Q6NXK8)", "T2 construct": "endogenous in cells; host or cells: primary cortical neurons from E16 Swiss mice", "T2 sequence (Q6NXK8 1-526)": "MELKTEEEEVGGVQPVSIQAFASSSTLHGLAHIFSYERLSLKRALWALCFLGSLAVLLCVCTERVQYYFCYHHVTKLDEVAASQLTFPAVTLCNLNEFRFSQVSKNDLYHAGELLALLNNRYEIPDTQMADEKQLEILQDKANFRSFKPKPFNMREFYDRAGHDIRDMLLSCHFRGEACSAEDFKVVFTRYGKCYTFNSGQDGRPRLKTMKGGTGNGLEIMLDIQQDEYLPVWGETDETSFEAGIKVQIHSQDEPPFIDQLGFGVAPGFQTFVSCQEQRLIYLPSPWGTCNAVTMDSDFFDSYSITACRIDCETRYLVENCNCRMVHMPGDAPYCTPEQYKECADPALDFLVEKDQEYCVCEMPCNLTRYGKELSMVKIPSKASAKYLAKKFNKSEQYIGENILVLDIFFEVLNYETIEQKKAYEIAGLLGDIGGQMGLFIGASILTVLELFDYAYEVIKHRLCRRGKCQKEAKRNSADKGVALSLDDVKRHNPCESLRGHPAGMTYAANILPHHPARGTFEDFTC", "format": "cell-based", "settings": "100 µM amiloride; pH 6.0; n=6"}, "TRPM7 channels": {"biological_target": "TRPM7 channels (Homo sapiens, UniProt Q96QT4)", "sequence (Q96QT4 whole entry)": "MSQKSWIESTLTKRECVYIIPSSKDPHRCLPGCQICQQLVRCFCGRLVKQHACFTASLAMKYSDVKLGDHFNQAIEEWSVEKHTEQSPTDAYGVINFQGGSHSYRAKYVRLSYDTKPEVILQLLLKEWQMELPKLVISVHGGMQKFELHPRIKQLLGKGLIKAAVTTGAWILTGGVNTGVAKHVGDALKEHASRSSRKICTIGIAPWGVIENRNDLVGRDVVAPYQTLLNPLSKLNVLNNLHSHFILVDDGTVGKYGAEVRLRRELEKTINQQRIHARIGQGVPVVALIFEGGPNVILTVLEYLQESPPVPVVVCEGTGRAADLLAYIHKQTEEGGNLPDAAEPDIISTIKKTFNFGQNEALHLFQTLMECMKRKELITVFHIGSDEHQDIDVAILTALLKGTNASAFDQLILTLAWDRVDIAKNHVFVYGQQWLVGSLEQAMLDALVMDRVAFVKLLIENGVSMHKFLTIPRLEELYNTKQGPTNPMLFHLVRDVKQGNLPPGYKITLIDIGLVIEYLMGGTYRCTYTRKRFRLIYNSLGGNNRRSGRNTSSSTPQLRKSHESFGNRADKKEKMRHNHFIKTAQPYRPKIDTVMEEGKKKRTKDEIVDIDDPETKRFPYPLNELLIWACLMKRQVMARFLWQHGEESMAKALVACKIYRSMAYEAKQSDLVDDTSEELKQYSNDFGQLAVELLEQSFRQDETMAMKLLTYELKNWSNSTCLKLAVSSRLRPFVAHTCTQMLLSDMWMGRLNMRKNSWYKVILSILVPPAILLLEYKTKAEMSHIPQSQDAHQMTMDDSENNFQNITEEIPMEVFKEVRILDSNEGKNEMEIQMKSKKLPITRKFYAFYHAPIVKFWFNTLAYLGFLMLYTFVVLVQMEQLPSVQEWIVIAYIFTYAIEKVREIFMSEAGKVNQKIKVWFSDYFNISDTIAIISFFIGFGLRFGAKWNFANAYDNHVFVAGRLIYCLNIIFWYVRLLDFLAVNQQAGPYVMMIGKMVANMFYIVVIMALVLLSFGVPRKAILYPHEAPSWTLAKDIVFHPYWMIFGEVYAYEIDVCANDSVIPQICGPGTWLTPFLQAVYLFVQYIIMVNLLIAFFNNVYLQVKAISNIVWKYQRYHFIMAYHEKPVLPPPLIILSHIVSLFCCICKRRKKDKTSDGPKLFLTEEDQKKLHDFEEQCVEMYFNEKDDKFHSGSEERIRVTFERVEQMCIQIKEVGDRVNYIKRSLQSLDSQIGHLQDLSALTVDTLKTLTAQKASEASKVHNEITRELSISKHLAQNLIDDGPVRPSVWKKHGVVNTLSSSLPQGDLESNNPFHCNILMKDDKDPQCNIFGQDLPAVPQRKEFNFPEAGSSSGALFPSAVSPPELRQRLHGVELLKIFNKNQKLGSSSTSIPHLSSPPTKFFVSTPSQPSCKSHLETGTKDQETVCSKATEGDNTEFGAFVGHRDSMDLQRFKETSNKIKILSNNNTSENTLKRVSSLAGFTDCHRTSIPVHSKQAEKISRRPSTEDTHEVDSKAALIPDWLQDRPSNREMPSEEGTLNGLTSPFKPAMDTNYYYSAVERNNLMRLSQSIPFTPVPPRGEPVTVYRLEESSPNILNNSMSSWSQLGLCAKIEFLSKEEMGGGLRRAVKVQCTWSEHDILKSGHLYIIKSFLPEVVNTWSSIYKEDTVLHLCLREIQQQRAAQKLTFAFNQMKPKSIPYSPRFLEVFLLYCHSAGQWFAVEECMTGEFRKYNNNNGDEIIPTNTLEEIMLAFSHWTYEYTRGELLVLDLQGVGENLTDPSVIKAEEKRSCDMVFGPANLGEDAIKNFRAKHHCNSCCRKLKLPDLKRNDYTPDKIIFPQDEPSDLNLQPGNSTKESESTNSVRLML", "assay": "Conductance of TRPM7 channels", "format": "cell-based"}},
  "data": [
    {"smiles": "N=C(N)NC(=O)c1nc(Cl)c(N)nc1N", "note": "[amiloride]", "values": [
      {"measurement": "peak and sustained increases in [Ca^2+]i", "setting": "cortical neurons", "value": "largely inhibited"},
      {"measurement": "block of ASIC2a current", "setting": "ASIC2a", "value": "dose-dependent"},
      {"measurement": "acid-induced LDH release", "setting": "[1]", "value": "inhibited"},
      {"measurement": "peak amplitude of Ca^2+-mediated current, of control", "setting": "ASICs", "value": "26% ± 2%"},
      {"measurement": "conductance of TRPM7 channels", "setting": "TRPM7 channels", "value": "no effect"}
    ]}
  ]
}
